{"source": "patent US11504431B2", "about": "“Formulations for the suprachoroidal space of an eye and methods” (Emory University, priority 2016, dated 2022)", "key": {"[1]": {"settings": "value assumed or taken from literature; cited from earlier work"}, "[2]": {"system": "SCS of rabbit eyes ex vivo", "experiment": "Ex vivo SCS microneedle injection, flat mount of 2D circumferential spread", "set-up": "species or system New Zealand White rabbit", "settings": "in HBSS with 0.2 μm red-fluorescent particles, 25-150 μL, 3 minutes post-injection, mean±SEM", "protocol": "Extraocular tissues were carefully removed from the rabbit ocular globe. To simulate a physiological intraocular pressure (IOP) of 10-12 mmHg, a water column was raised to ˜14 cm and connected to the eye via a 25-gauge needle penetrated through the optic nerve. A microneedle (750 μm in length, 33-gauge; Clearside Biomedical, Alpharetta, Ga.) attached to a 250 μL glass chromatography syringe (National Scientific, Rockwood, Tenn.) was used to make injections.\nDepending on the experimental condition, each injection consisted of 25 to 150 μL of 0.5% (w/v) red-fluorescent particles (0.2 μm diameter; Excitation: 580 nm; Emission: 605 nm) and 0.025% (w/v) fluorescein suspended in Hank's Balanced Salt Solution (HBSS; Gibco, Life Technologies). After each injection, the needle was held in place for 1 minute to minimize reflux. The eye was then frozen via submersion in 100% ethanol chilled over dry ice 3 minutes post-injection depending on experimental condition.\nAfter SCS injection and freezing, eyes were prepared to assess the 2D spread of particles and fluorescein. […]\nA digital SLR camera (Canon 60D, Canon, Melville, N.Y.) with a 100 mm lens (Canon) was used to acquire brightfield and fluorescence images. […] The area of green and red fluorescence that was above threshold was calculated for each eye using ImageJ (National Institutes of Health, Bethesda, Md.). […]"}, "[3]": {"system": "rabbit SCS in vivo", "experiment": "In vivo SCS injection, RetCam fluorescence fundus imaging of area coverage and co-localization", "set-up": "species or system New Zealand White rabbit", "excerpt": "Also investigated was the role of formulation and time on particle distribution in the SCS. The distribution of red-fluorescent particles suspended with green fluorescently-tagged formulation excipients in HBSS after injection into the SCS of live rabbits was imaged using red and green fluorescence simultaneously. Fluorescence was imaged using RetCam imaging, which was preferred to other non-contact fundus imaging methods, since it enabled visualization of the posterior pole as well as the far periphery (i.e., the injection site). The percentage of the SCS area in the composite images that had red/green fluorescence values at least 0.1% of the starting concentration was then calculated, and this calculation was used as a proxy of true coverage; and determined the incidence of co-localization of the red and green fluorescence greater than chance. […]\nAt predetermined time points, the animals were imaged with a modified RetCam II system (Clarity Medical Systems, Pleasanton, Calif.). […] The built-in fluorescein attachment was used to capture green fluorescence. For the red fluorescence, green light was generated by placing a 575±50 nm bandpass filter (Edmunds Optics) in line with the fiber optic line. A red-emission filter (610±10 nm, Omega Optical, Brattleboro, Vt.) was placed over the camera to capture red fluorescence. […]"}, "[4]": {"system": "rabbit SCS in vivo", "experiment": "Clearance of fluorescein from the SCS by fundus microscopy, effect of liquid formulation", "set-up": "species or system New Zealand White rabbit", "protocol": "After injection of a formulation into the SCS of an anesthetized rabbit, U/S B-scan was used to determine SCS thickness at multiple locations over time, from which the rate of SCS collapse was calculated, as shown at FIG. 9. In companion experiments, the approximate clearance rate of injected fluorescent material from the SCS was found by taking fluorescence fundus images in the rabbit eye in vivo over time until fluorescence was no longer visible.\nAlso investigated was the effect of liquid formulation viscosity on the timescale of clearance of fluorescein from the SCS. Using fundus microscopy, the time it took for there to be no visual evidence of fluorescein in the SCS was identified. […] This was likely due to the long-lived presence of viscous CMC gel in the SCS (as evidenced by the SCS remaining open for many days), which can slow diffusion of fluorescein out of the SCS."}, "[5]": {"system": "SCS of live rabbits", "experiment": "Collection of fluorescein by different clearance routes after SCS injection", "format": "in vivo, New Zealand White rabbit", "settings": "one hour post-injection", "protocol": "To assess contributions of different routes of clearance, fluorescein from multiple collection sites was collected after SCS injection in vivo. The fluorescein collected from these collection sites was determined over time. The amount of fluorescein leaving through the injection site was found by subtracting site [i] from site [ii] (i.e., difference in fluorescein collected from sclera anterior to the equator without and with injection site plugged). And the amount of fluorescein leaving through blood was found by subtracting site [iv] from site [iii] (i.e., difference in fluorescein collected from sclera posterior to the equator with and without the vortex vein transected). Though the physiological data are inherently noisy, they should nevertheless enable an order of magnitude characterization of the underlying processes (which can be compared to a theoretical model of transport below). The amount of fluorescein collected over time is depicted at FIG. 17.\nFor this terminal experiment, the rabbit (N=4 eyes per group) was anesthetized with a subcutaneous injection of ketamine/xylazine before microneedle injection; additional injections were given every 30 minutes to maintain anesthesia. Subcutaneous injection of 60 mL saline was also given on the rump to counteract fluid loss. The amount of fluorescein exiting the eye was determined by collecting samples over time from [i] sclera anterior to the equator; [ii] anterior sclera with injection site plugged; [iii] sclera posterior to the equator; and [iv] posterior sclera with vortex vein transected.\nPrior to microneedle injection, the supranasal conjunctiva was dissected off the sclera. […] In [i] anterior sclera and [iii] posterior sclera conditions, samples were collected for 1 hour by swabbing the space with a 1 cm×1 cm paper tissue (Kimwipe, Kimberley-Clark, Irving, Tex.). Care was taken to swab only anterior or posterior to the equator, depending on the condition. The tissue was then placed in 1 mL HBSS until analysis.\nTo determine the amount of fluorescein leaving [ii] the anterior sclera with injection site plugged, a similar experiment was performed. Immediately post-injection, the injection site was plugged by sealing the microneedle into sclera with cyanoacrylate glue (Loctite 4013, Düsseldorf, Germany). Other methods were the same as above.\nHeparin (5 mL of 10,000 IU/mL; Hospira, Lake Forest, Ill.) was given intravenously prior to the start of the experiment to prevent coagulation. […] A transfer pipette was used to collect blood exiting the vortex vein for 1 hour. The volume of collected blood was recorded, and HBSS was added to reach a final volume of 2 mL per sample for analysis.\nImmediately after the last time point, all animals were euthanized by injection of pentobarbital through the marginal ear vein. Eyes were enucleated to determine the amount of fluorescein remaining (i) within the tissue (including SCS), and (ii) in aqueous humor, vitreous humor, and lens. The Kimwipe paper tissue and ocular tissue samples were placed in HBSS at 4° C. for 2 days to allow fluorescein to diffuse out and equilibrate with the HBSS. The amount of fluorescein in all samples was measured using a multi-plate reader (Excitation: 494 nm, Emission: 521 nm, Synergy H4, BioTek, Winooski, Vt.). In a separate experiment involving incubation of Kimwipes in a known amount of fluorescein, we found no evidence of loss in extracting fluorescein from the Kimwipe, and no leaching of fluorescent species out of the Kimwipe."}, "[6]": {"system": "SCS of live rabbits", "settings": "New Zealand White, rabbit, in vivo, 3 min"}, "[7]": {"system": "SCS of live rabbits", "experiment": "SCS clearance kinetics by fundus imaging"}}, "data": [{"smiles": "C=C(CC)C(=O)c1ccc(OCC(=O)O)c(Cl)c1Cl", "note": "[ethacrynic acid]", "values": [{"measurement": "diffusivity", "setting": "[1]", "result": "5×10^−6 cm^2/s"}]}, {"smiles": "O=C1OC2(c3ccc(O)cc3Oc3cc(O)ccc32)c2ccccc21", "note": "[fluorescein]", "values": [{"measurement": "ratio of area covered by fluorescein versus particles", "setting": "[2]", "result": "2.05±0.24"}, {"measurement": "peak area coverage of the fluorescent species (of visible SCS area)", "setting": "[3]; 50 μL SCS injection in HBSS", "result": 66, "unit": "%"}, {"measurement": "total clearance of the fluorescently-tagged formulation excipient from the SCS", "setting": "[3]; HBSS = fluorescein in HBSS", "result": "≤ 2", "unit": "days"}, {"measurement": "total clearance of fluorescein from the SCS", "setting": "[4]; injected in 5% CMC solution", "result": "2.7 ± 0.7", "unit": "days"}, {"measurement": "total clearance of fluorescein from the SCS", "setting": "[4]; injected in HBSS", "result": "0.33 ± 0.05", "unit": "days"}, {"measurement": "fluorescein exited via perivascular drainage around the vortex vein", "setting": "[5]", "result": "2.5±0.3", "unit": "%"}, {"measurement": "fluorescein exited via the injection site", "setting": "[5]", "result": "1.3±4", "unit": "%"}, {"measurement": "fluorescein found in blood", "setting": "[5]", "result": "6.3±4", "unit": "%"}, {"measurement": "fluorescein passed transsclerally to the subconjunctival space (anterior and posterior combined)", "setting": "[5]", "result": "15±0.3", "unit": "%"}, {"measurement": "fluorescein still within tissue (sclera, choroid, SCS, etc.), of total injected", "setting": "[5]", "result": "46±18", "unit": "%"}, {"measurement": "fluorescein unaccounted for", "setting": "[5]", "result": "About 28%"}, {"measurement": "area of the visible SCS occupied", "setting": "[6]", "result": "56±6", "unit": "%"}, {"measurement": "clearance time constant (τclearance)", "setting": "[7]; exponential decay fit of fundus fluorescence", "result": "4.3 ± 0.4", "unit": "h"}, {"measurement": "total clearance time from SCS", "setting": "[7]; fluorescence no longer visible", "result": "≤ 24", "unit": "h"}]}]}
